# “Also recorded” adds a separate entry of the source. Read-outs that look alike come from different tables or passages of the source.
# Tests used:
# [1] = Aqueous solubility (Cerep); type: physicochemical; conditions: assay maximum 200 µM
# Experimental: (§1) To evaluate the relative binding specificity of LM22A-4 ([Massa et al., 2010]) and PTX-BD4-3, binding to a broad range of 55 pharmacologically relevant receptors, including numerous neurotransmitter and G-protein coupled receptors was assessed using standard radioligand competition binding assays (ExpressSProfile) performed by Cerep, Inc. (Seattle, WA, USA). In addition, ADME-Tox analysis was performed by Cerep, Inc. All experimental conditions are described on the Cerep website (www.cerep.fr).
# (§2) Aqueous Human CYP inhibition (10µM) AMES hERG solubility hepatocyte DNA testing
# (§3) (µM) metabolic mutagenesis
# (§4) PTX‐BD4‐3 200 >60 negative negative negative
# (§5) Table S2. Solubility, metabolism and toxicity screens for LM22A-4 and PTX-BD4-3. Standardized assays of solubility, metabolic stability and in vitro toxicity were performed to further evaluate the potential of PTX-BD4-3 as a lead candidate molecule for the treatment of Rett syndrome, and to compare its profile to that of the parent compound LM22A-4. Aqueous solubility of both compounds, which is used as a surrogate measure of absorption, was at or near the assay maximum of 200 µM. The metabolic stability of both compounds at 10 µM was evaluated at 5 different time points in […] and found to be >60 min, indicating favorable stability. […]
# [2] = Metabolic stability (Cerep); type: in vitro ADME, human; conditions: 10 µM, 5 time points
# Experimental: as §1, §2, §3, §4
# Table S2. Solubility, metabolism and toxicity screens for LM22A-4 […]
# and PTX-BD4-3. […]
# (also on this page, place not known: Disease Models & Mechanisms: doi:10.1242/dmm.044685: Supplementary information Disease Models & Mechanisms • Supplementary information)
# 3T3-TrkB cells = experiment: NIH-3T3 cell survival (ViaLight); type: cell-based, mouse; conditions: 72-96 h
# Experimental: Fig. 2. PTX-BD4-3 promotes cell survival preferentially through TrkB. (A-D) Neurotrophin receptor-expressing NIH-3T3 cells were incubated in culture medium (CM) alone or in medium plus either the indicated neurotrophins (BDNF, NGF, NT-3) or PTX-BD4-3 or its parent compound LM22A-4 for 72-96 h, after which survival was measured using the ViaLight assay. […] Scale bar: 10 μm. (B) Survival dose-response curves for PTX-BD4-3 and LM22A-4 in 3T3-TrkB cells. ^§P≤0.001 compared to CM alone. (C) Representative images of 3T3-TrkA, 3T3-TrkC and 3T3-p75 cells grown in the presence of CM alone, CM+neurotrophin or CM+PTX-BD4-3. Scale bar: 10 μm. NGF, NT-3 and BDNF served as positive controls for 3T3-TrkA, 3T3-TrkC and 3T3-p75 cells, respectively. (D) PTX-BD4-3 (1000 nM) had no effect on survival of 3T3-TrkA, 3T3-TrkC or 3T3-p75 cells compared to medium alone. *P≤0.05, ***P≤0.001 compared to CM alone. For each determination in B and D, n=10-32 wells derived from four to five independent experiments. Statistical significance was determined by one-way ANOVA with Dunnett's post hoc multiple comparison test. (E,F) […] protein was extracted from human cementoblast-like cell (HCEM) cultures treated with either culture medium alone, BDNF, LM22A-4 or PTX-BD4-3, immunoprecipitated with anti-TrkB antibody and then probed sequentially on western blots with anti-Shc and anti-TrkB antibody. The ratio of Shc to TrkB in treated cultures was normalized and compared to control (CM alone) using Kruskal-Wallis ANOVA followed by Dunn's multiple comparisons test (*P≤0.05, ^§P≤0.001). n=13 independent experiments, and each protein sample was run on duplicate western blots and the normalized values averaged. RLUs, relative light units.
# Mouse NIH-3T3 cells expressing TrkA (NIH-3T3-TrkA) were provided by Dr William Mobley (University of California at San Diego, San Diego, CA, USA), and NIH-3T3 cells expressing TrkB (NIH-3T3-TrkB) or TrkC (NIH-3T3-TrkC) were provided by Dr David Kaplan (University of Toronto, Toronto, ON, Canada). Cells were propagated in Dulbecco's modified Eagle medium (DMEM) supplemented with 10% fetal bovine serum (FBS; Invitrogen) and 200-400 µg/ml Geneticin. Cells were seeded into 24-well plates (30,000 cells/well) and cultured in medium consisting of 50% PBS and 50% DMEM without supplements. Following exposure to BDNF (20 ng/ml, 0.7 nM) or 10-1000 nM LM22A-4 or PTX-BD4-3 for 72-96 h, cells were suspended in 50 µl lysis buffer, transferred to white, opaque 96-well culture plates and survival was measured using the ViaLight Assay (Lonza Group, Rockland, ME, USA).
# hERG channels = molecular target: T1, hERG channels (Homo sapiens, UniProt Q12809); experiment: hERG testing (Cerep); type: cell-based; conditions: 0.1, 1 and 10 µM; >50% inhibition of the tail current = significant
# T1 construct: Cerep, Inc. (contract screen)
# Experimental: as §1, §2, §3, §4, §5
# [3] = Brain:plasma partitioning (LC-MS/MS); type: in vivo, mouse; conditions: mice; for concentration at 1 h / concentration at 3 h / Kp at 1 h / Kp at 3 h / plasma levels: 50 mg/kg i.p.; for Kp at 1 h / Kp at 3 h: brain/plasma, read-out: brain-to-plasma ratio; for concentration at 1 h / Kp at 1 h / plasma levels: 1 h; for plasma levels: in nM (unit assumed)
# Experimental: Brain and plasma concentrations of LM22A-4, PTX-BD4-3 and atenolol were determined by LC-MS/MS by Absorption Systems (Exton, PA, USA). Male C57BL/6 were dosed intraperitoneally one time with LM22A-4 or PTX-BD4-3 suspended in water at 50 mg/kg (10 ml/kg). Mice were sacrificed at 1 h or 3 h post dose (n=3-4 mice/time point), and brain and plasma samples were collected.
# Figure S1. Brain and plasma levels, and brain to plasma ratios for […]
# PTX-BD4-3 following IP administration in Wt mice. Brain and plasma levels were determined by LC-MS/MS and used to calculate the brain:plasma ratios at 1 and 3 hours after IP administration of 50 mg/kg LM22A-4 (black), or PTX- […]
# in mice (n=11-12 mice/time point; data shown are mean + s.e.m.)
# *p<0.05 compared to LM22A-4 at same time point; one-tailed Student’s t-test. […]
# TrkB = experiment: Shc adaptor protein recruitment to TrkB in HCEMs (IP/western blot); type: cell-based, human; conditions: 1 h, compounds 1000 nM, BDNF 0.7 nM
# Source text: Fig. 2. […] Scale bar: 10 μm. […] Scale bar: 10 μm.
# [4] = male, C57BL/6, mouse, brain, ip, read-out: brain levels
# [5] = male, C57BL/6, mouse, plasma, ip, read-out: plasma level
# T1 sequence (Q12809 whole entry): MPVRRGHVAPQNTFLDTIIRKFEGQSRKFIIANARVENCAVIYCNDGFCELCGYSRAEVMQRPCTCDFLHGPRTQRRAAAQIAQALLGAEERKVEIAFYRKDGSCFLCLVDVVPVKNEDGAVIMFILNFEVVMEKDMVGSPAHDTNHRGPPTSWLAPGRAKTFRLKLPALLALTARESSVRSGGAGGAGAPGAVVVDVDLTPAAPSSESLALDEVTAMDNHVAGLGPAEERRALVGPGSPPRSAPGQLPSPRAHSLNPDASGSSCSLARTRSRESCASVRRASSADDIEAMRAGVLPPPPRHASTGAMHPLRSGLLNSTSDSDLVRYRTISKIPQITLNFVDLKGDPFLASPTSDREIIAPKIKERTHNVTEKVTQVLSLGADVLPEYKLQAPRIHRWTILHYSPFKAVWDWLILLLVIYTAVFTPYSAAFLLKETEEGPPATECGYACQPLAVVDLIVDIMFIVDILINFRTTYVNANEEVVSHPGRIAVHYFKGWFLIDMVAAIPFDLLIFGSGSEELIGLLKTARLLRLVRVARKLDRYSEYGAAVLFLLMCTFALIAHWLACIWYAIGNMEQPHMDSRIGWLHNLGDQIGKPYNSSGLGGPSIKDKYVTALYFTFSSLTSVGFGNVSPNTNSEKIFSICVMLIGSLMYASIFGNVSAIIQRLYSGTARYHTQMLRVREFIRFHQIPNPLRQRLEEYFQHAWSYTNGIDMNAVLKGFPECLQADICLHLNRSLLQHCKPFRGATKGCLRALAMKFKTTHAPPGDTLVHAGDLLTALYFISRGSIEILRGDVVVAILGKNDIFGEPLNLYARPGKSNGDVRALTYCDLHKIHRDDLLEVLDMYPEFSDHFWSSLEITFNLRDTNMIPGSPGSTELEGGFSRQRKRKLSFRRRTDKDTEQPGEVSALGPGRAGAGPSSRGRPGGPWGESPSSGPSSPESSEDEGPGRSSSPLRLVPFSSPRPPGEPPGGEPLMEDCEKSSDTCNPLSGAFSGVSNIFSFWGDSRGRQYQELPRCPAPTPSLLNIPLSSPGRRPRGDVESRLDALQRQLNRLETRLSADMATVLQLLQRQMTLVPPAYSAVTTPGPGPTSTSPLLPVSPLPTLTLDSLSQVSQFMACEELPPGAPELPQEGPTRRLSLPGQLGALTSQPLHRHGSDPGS
Compound,solubility [1],Human hepatocyte metabolic stability [2],"survival of 3T3-TrkB cells (3T3-TrkB cells; 1000 nM, representative images)",hERG testing (cardiac toxicity) (hERG channels),"concentration at 1 h [3, 4]","concentration at 3 h [3, 4]","Kp at 1 h ([3]; male, C57BL/6, mouse, ip)","Kp at 3 h ([3]; male, C57BL/6, mouse, ip)","concentration at 3 h [3, 5]",plasma levels [3],Shc recruitment to TrkB (ratio of Shc to TrkB) (TrkB),"survival of 3T3-TrkB cells (3T3-TrkB cells; serum-free medium, ViaLight, compounds 10-1000 nM dose-response, BDNF 20 ng/ml)","half-life ([3]; male, C57BL/6, mouse, brain and plasma, ip, 50 mg/kg, systemic (i.p.) administration)"
"O=C(NCCO)c1cc(C(=O)NCCO)cc(C(=O)NCCO)c1 [LM22A-4, N,N′,N′′-tris(2-hydroxyethyl)-1,3,5-benzenetricarboxamide, reference compound]",180 µM,> 60 min,support the survival,negative,0.2 µM,0.0532 µM,0.0268,0.133,2350 µM,9193.46,promoted Shc recruitment to TrkB,–,–
"COCCN(C)C(=O)c1cc(C(=O)N(C)CCOC)cc(C(=O)N(C)CCOC)c1 [PTX-BD4-3, benzene-1,3,5-tricarboxylic acid tris-[(2-methoxy-ethyl)-methyl-amide]]",200 µM,> 60 min,support the survival,negative; also recorded: no activity,0.227 µM,0.0361 µM,0.0329,0.271,361 µM,10011.16,promoted Shc recruitment to TrkB,promoted survival,< 3 h
